Laboratory results: ChEMBL document CHEMBL4251578, “Design, synthesis and biological evaluation of novel 2-aminobenzamides containing dithiocarbamate moiety as histone deacetylase inhibitors and potent antitumor agents” (Eur J Med Chem, 2018)
Calls of active or inactive are those of the source. The rule behind the calls is not given here.

Tests used:
SMMC-7721 [1] = test: Cell cycle arrest in human SMMC7721 cells assessed as accumulation of cells at G0/G1 phase at 4 umol/L after 72 hrs by propidium iodide staining-based flow cytometric analysis (reference value: 80.65%); type: functional
SMMC-7721 [2] = test: Induction of apoptosis in human SMMC7721 cells assessed as viable cells at 0.125 umol/L after 72 hrs by Alexa Fluor 488 Annexin/propidium iodide staining-based flow cytometric analysis (reference value: 97.14%); type: functional; settings: SMMC-7721, 72 h, read-out: Activity
MGC-803 [3] = test: Antiproliferative activity against human MGC803 cells at 8 uM after 72 hrs by CCK-8 assay relative to control; type: functional; settings: MGC-803, 72 h
SMMC-7721 [4] = test: Inhibition of colony formation in human SMMC7721 cells after 7 days by crystal violet staining-based assay; type: functional, cell-based
SMMC-7721 [5] = test: Induction of apoptosis in human SMMC7721 cells assessed as necrotic cells at 4 umol/L after 72 hrs by Alexa Fluor 488 Annexin/propidium iodide staining-based flow cytometric analysis (reference value: 2.48%); type: functional
SMMC-7721 [6] = test: Induction of apoptosis in human SMMC7721 cells assessed as late apoptotic cells at 4 umol/L after 72 hrs by Alexa Fluor 488 Annexin/propidium iodide staining-based flow cytometric analysis (reference value: 0.29%); type: functional
A-375 [7] = test: Antiproliferative activity against human A375 cells at 8 uM after 72 hrs by CCK-8 assay relative to control; type: functional; settings: A-375, 72 h
SMMC-7721 [8] = test: Induction of apoptosis in human SMMC7721 cells assessed as viable cells at 4 umol/L after 72 hrs by Alexa Fluor 488 Annexin/propidium iodide staining-based flow cytometric analysis (reference value: 97.14%); type: functional; settings: SMMC-7721, 72 h, read-out: Activity
SMMC-7721 [9] = test: Induction of apoptosis in human SMMC7721 cells assessed as necrotic cells at 1 umol/L after 72 hrs by Alexa Fluor 488 Annexin/propidium iodide staining-based flow cytometric analysis (reference value: 2.48%); type: functional
SMMC-7721 [10] = test: Cell cycle arrest in human SMMC7721 cells assessed as accumulation of cells at S phase at 4 umol/L after 72 hrs by propidium iodide staining-based flow cytometric analysis (reference value: 5.21%); type: functional
SMMC-7721 [11] = test: Induction of apoptosis in human SMMC7721 cells assessed as late apoptotic cells at 1 umol/L after 72 hrs by Alexa Fluor 488 Annexin/propidium iodide staining-based flow cytometric analysis (reference value: 0.29%); type: functional
A-375 [12] = test: Antiproliferative activity against human A375 cells at 2 uM after 72 hrs by CCK-8 assay relative to control; type: functional; settings: A-375, 72 h
SMMC-7721 [13] = test: Antiproliferative activity against human SMMC7721 cells after 72 hrs by CCK-8 assay; type: functional, cell-based; settings: SMMC-7721, 72 h
SMMC-7721 [14] = test: Cell cycle arrest in human SMMC7721 cells assessed as accumulation of cells at G2/M phase at 4 umol/L after 72 hrs by propidium iodide staining-based flow cytometric analysis (reference value: 14.14%); type: functional
SMMC-7721 [15] = test: Cell cycle arrest in human SMMC7721 cells assessed as accumulation of cells at S phase at 0.125 umol/L after 72 hrs by propidium iodide staining-based flow cytometric analysis (reference value: 5.21%); type: functional
NCI-H1299 = test: Antiproliferative activity against human NCI-H1299 cells after 72 hrs by CCK-8 assay; type: functional, cell-based; settings: NCI-H1299, 72 h
SMMC-7721 [16] = test: Induction of apoptosis in human SMMC7721 cells assessed as necrotic cells at 0.125 umol/L after 72 hrs by Alexa Fluor 488 Annexin/propidium iodide staining-based flow cytometric analysis (reference value: 2.48%); type: functional
SMMC-7721 [17] = test: Cell cycle arrest in human SMMC7721 cells assessed as accumulation of cells at S phase at 1 umol/L after 72 hrs by propidium iodide staining-based flow cytometric analysis (reference value: 5.21%); type: functional
SMMC-7721 [18] = test: Induction of apoptosis in human SMMC7721 cells assessed as early apoptotic cells at 0.125 umol/L after 72 hrs by Alexa Fluor 488 Annexin/propidium iodide staining-based flow cytometric analysis (reference value: 0.09%); type: functional
HeLa [19] = test: Antiproliferative activity against human HeLa cells at 8 uM after 72 hrs by CCK-8 assay relative to control; type: functional
SMMC-7721 [20] = test: Cell cycle arrest in human SMMC7721 cells assessed as accumulation of cells at G2/M phase at 1 umol/L after 72 hrs by propidium iodide staining-based flow cytometric analysis (reference value: 14.14%); type: functional
SMMC-7721 [21] = test: Cell cycle arrest in human SMMC7721 cells assessed as accumulation of cells at G0/G1 phase at 1 umol/L after 72 hrs by propidium iodide staining-based flow cytometric analysis (reference value: 80.65%); type: functional
A-375 [22] = test: Antiproliferative activity against human A375 cells after 72 hrs by CCK-8 assay; type: functional, cell-based; settings: A-375, 72 h
Histone deacetylase 2 = Histone deacetylase 2 (Homo sapiens, UniProt Q92769); test: Inhibition of human recombinant HDAC2 using Fluor de Lys-Green as substrate preincubated for 5 mins followed by substrate addition and measured after 1 hr by fluorescence assay
Chain of Histone deacetylase 2 (Q92769 whole entry): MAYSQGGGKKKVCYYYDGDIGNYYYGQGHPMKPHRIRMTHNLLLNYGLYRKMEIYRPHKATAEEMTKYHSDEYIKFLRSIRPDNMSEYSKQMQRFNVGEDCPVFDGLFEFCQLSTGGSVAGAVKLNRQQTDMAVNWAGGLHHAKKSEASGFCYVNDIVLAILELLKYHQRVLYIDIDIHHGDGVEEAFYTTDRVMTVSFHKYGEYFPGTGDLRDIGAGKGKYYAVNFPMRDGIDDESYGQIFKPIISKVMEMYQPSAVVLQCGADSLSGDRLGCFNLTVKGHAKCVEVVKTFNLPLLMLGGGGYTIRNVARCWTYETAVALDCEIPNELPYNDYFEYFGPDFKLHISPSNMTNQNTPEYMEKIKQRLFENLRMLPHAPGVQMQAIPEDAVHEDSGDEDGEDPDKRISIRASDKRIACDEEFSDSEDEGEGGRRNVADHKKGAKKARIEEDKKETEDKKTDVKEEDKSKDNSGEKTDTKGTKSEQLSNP

SMMC-7721 [23] = test: Induction of apoptosis in human SMMC7721 cells assessed as late apoptotic cells at 0.125 umol/L after 72 hrs by Alexa Fluor 488 Annexin/propidium iodide staining-based flow cytometric analysis (reference value: 0.29%); type: functional
HeLa [24] = test: Antiproliferative activity against human HeLa cells at 2 uM after 72 hrs by CCK-8 assay relative to control; type: functional
SMMC-7721 [25] = test: Induction of apoptosis in human SMMC7721 cells assessed as early apoptotic cells at 4 umol/L after 72 hrs by Alexa Fluor 488 Annexin/propidium iodide staining-based flow cytometric analysis (reference value: 0.09%); type: functional
SMMC-7721 [26] = test: Induction of apoptosis in human SMMC7721 cells assessed as early apoptotic cells at 1 umol/L after 72 hrs by Alexa Fluor 488 Annexin/propidium iodide staining-based flow cytometric analysis (reference value: 0.09%); type: functional
SMMC-7721 [27] = test: Cell cycle arrest in human SMMC7721 cells assessed as accumulation of cells at G2/M phase at 0.125 umol/L after 72 hrs by propidium iodide staining-based flow cytometric analysis (reference value: 14.14%); type: functional
SMMC-7721 [28] = test: Induction of apoptosis in human SMMC7721 cells assessed as viable cells at 1 umol/L after 72 hrs by Alexa Fluor 488 Annexin/propidium iodide staining-based flow cytometric analysis (reference value: 97.14%); type: functional; settings: SMMC-7721, 72 h, read-out: Activity
HeLa [29] = test: Antiproliferative activity against human HeLa cells after 72 hrs by CCK-8 assay; type: functional, cell-based
MGC-803 [30] = test: Antiproliferative activity against human MGC803 cells at 2 uM after 72 hrs by CCK-8 assay relative to control; type: functional; settings: MGC-803, 72 h
HCT-116 = test: Antiproliferative activity against human HCT116 cells after 72 hrs by CCK-8 assay; type: functional, cell-based; settings: HCT-116, 72 h
MGC-803 [31] = test: Antiproliferative activity against human MGC803 cells after 72 hrs by CCK-8 assay; type: functional, cell-based; settings: MGC-803, 72 h

Row | Structure (SMILES) | Activity (SMMC-7721 [1]) [%] | viability at 0.125 µM (SMMC-7721 [2]) [%] | inhibition at 8 µM (MGC-803 [3]) [%] | Activity (SMMC-7721 [5]) [%] | Activity (SMMC-7721 [6]) [%] | inhibition at 8 µM (A-375 [7]) [%] | viability at 4 µM (SMMC-7721 [8]) [%] | Activity (SMMC-7721 [9]) [%] | Activity (SMMC-7721 [10]) [%] | Activity (SMMC-7721 [11]) [%] | inhibition at 2 µM (A-375 [12]) [%] | IC50 (SMMC-7721 [13]) [µM] | Activity (SMMC-7721 [14]) [%] | Activity (SMMC-7721 [15]) [%] | IC50 (NCI-H1299) [µM] | Activity (SMMC-7721 [16]) [%] | Activity (SMMC-7721 [17]) [%] | Activity (SMMC-7721 [18]) [%] | inhibition at 8 µM (HeLa [19]) [%] | Activity (SMMC-7721 [20]) [%] | further results
1 | Nc1ccc(F)cc1NC(=O)c1ccc(CNC(=O)/C=C/c2cccnc2)cc1 | 76.41 | 78.3 | 54.5 | 3.06 | 17.32 | 54.3 | 74.2 | 11.25 | 5.54 | 10.22 | 21.3 | > 26 | 18.05 | 5.71 | 16.3 | 4.08 | 5.26 | 6.02 | 41.4 | 18.67 | inhibition (SMMC-7721 [4]): Active; Activity (SMMC-7721 [21]): 76.07%; IC50 (A-375 [22]): 7.67 µM; IC50 (Histone deacetylase 2): 0.37 µM; Activity (SMMC-7721 [23]): 11.62%; inhibition at 2 µM (HeLa [24]): 14.7%; Activity (SMMC-7721 [25]): 5.45%; Activity (SMMC-7721 [26]): 4.59%; Activity (SMMC-7721 [27]): 17.2%; viability at 1 µM (SMMC-7721 [28]): 73.9%; IC50 (HeLa [29]): 11.8 µM; inhibition at 2 µM (MGC-803 [30]): 7.8%
2 | Nc1ccccc1NC(=O)c1ccc(CNC(=O)OCc2cccnc2)cc1 [ENTINOSTAT] | 71.21 | 77.5 | 67.2 | 7.47 | 15.13 | 88.7 | 57.3 | 5.22 | 7.55 | 9.64 | 30.2 | 5.97 | 21.24 | 4.54 | 6.74 | 9.56 | 5.35 | 4.56 | 76.6 | 15.55 | IC50 (HCT-116): 0.47 µM; IC50 (MGC-803 [31]): 4.89 µM; Activity (SMMC-7721 [21]): 79.1%; IC50 (A-375 [22]): 3.67 µM; Activity (SMMC-7721 [23]): 8.41%; inhibition at 2 µM (HeLa [24]): 62.2%; Activity (SMMC-7721 [25]): 20.06%; Activity (SMMC-7721 [26]): 11.21%; Activity (SMMC-7721 [27]): 17.36%; viability at 1 µM (SMMC-7721 [28]): 73.9%; IC50 (HeLa [29]): 1.6 µM; inhibition at 2 µM (MGC-803 [30]): 25.3%
